# Entries after “also recorded” stand apart in the source; their conditions may differ. Peptide text beside a SMILES is read from it. * marks the point of attachment. Cbz = O=C(OCc1ccccc1)*
# Legend:
# MAST1 [1] = experiment: MAST1 ubiquitination and degradation with proteasome inhibitor; type: cell-based, human
# Protocol: (§1) The ubiquitination status of MAST1 in the presence and absence of hsp90 was assessed. […] This was further confirmed in cisplatin-resistant cancer cells.
# KB-3-1 cells = experiment: CellTiter-Glo Luminescent Cell Viability assay, GR antagonist or agonist with cisplatin; type: cell-based, human
# Protocol: (§2) Loss of GR sensitizes cells to cisplatin. GR was inhibited by shRNA (top) or by antagonist (bottom) in the presence or absence of cisplatin. Cell viability and MEK activity was measured by CellTiter-Glo™ Luminescent Cell Viability assay and p-MEK1 S217/S221 blot, respectively. Cisplatin: 1 μg/ml, Mifepristone: 10 μM.
# (§3) GR was enhanced by overexpression (top) or agonist (bottom) and cell viability and MEK1 activity was measured, cisplatin: 3 μg/ml, dexamethasone: 0.5 μM.
# (§4) To investigate whether GR contributes to cisplatin resistance in cancer cells, GR was genetically or pharmacologically modulated and changes in cisplatin-resistant cancer cell proliferation as well as the activity of MEK1, which is the predominant substrate of MAST1, was monitored. […] Exogenous overexpression of myc tagged MAST1 restored the attenuated cisplatin-resistant cell growth and MEK1 activity in KB-3-1 cells with GR inhibition either by GR shRNA or GR antagonist mifepristone (FIG. 2A). […] In contrast, reduction of MAST1 by shRNA abolished the elevated cisplatin resistant cancer cell proliferation and MEK1 activity in KB-3-1 cells with activated GR either by flag-GR overexpression or GR agonist dexamethasone (FIG. 2C). Knockdown of MAST1 dramatically attenuated cisplatin resistant tumor growth in xenograft mice bearing flag-GR stably overexpressed KB-3-1 cells (FIG. 2D).
# [2] = tested on: ovarian cancer and head and neck cancer PDX; experiment: Tumor volume in PDX mice treated with cisplatin, dexamethasone and lestaurtinib; type: in vivo; settings: 5 mg/kg cisplatin, 0.1 mg/kg dexamethasone twice/week, 20 mg/kg lestaurtinib daily
# Protocol: Tumor volumes were measured by caliper.
# Therefore, we performed pilot experiments in vitro and in vivo to examine the concept.
# GR, MAST1 = experiment: Dexamethasone effect on GR activity, MAST1 expression and cisplatin-resistant tumor growth; settings: treatment with dexamethasone
# MEK1 [3] = experiment: MEK1 activity by p-MEK1 S217/S221 blot, GR antagonist or agonist with cisplatin; type: cell-based, human; settings: KB-3-1 cells
# Protocol: as §2, §3, §4
# MAST1 mRNA = MAST1 mRNA expression upon 17-AAG treatment; type: cell-based, human
# [4] = tested on: KB-3-1cisR xenograft tumors; experiment: Xenograft mice bearing KB-3-1cisR tumors treated with 17-AAG and cisplatin; type: in vivo
# Protocol: Mice were treated with cisplatin (5 mg/kg) and 17-AAG (50 mg/kg) from 5 days after xenograft.
# (§5) These in vitro observations were confirmed in vivo.
# (§6) Experiments were performed to determine whether ubiquitination of MAST1 at K317 and K545 upon hsp90 inhibition is involved in MAST1-mediated cisplatin-resistant cancer cell proliferation and tumor growth. […] The effect of MAST1 WT or 2KR was monitored in cells with MAST1 knockdown. […] This finding was further validated in vivo.
# MAST1 [5] = experiment: MAST1 protein level in cancer cells upon 17-AAG treatment; type: cell-based, human
# Protocol: (§7) Proteins that interact with MAST1 in cells were investigated through 2-dimensional (2D) gel electrophoresis-based proteomic profiling. GST or GST-fused MAST1 was pulled down from human 293T cells. The protein captured by GST-MAST1 but not by GST alone was excised from the 2D gel. Through mass spectrometry-based (MS-based) proteomic analysis, hsp90B was identified as a potential binding partner of MAST1. […] Experiments were performed to determine whether the interaction is limited to the hsp90B isoform by comparing the interaction between MAST1 and hsp90B or hsp90A. Hsp90A, another isoform of hsp90, also binds to MAST1 in cisplatin-resistant cancer cells. Although hsp90A binds to MAST1 in cisplatin-resistant cancer cells, the interaction was weaker compared with hsp90B. […] Experiments were performed to determine whether treatment with 17-AAG, a selective inhibitor of hsp90, alters MAST1 protein levels in cells.
# Through a MS-based proteomic analysis, it was identified that MAST1 is specifically ubiquitinated at lysine residues K317 and K545 upon hsp90 inhibition. To investigate whether these 2 residues are the main ubiquitination sites of MAST1 that mediate proteasomal degradation upon hsp90 inhibition, the lysine-to-arginine mutant forms of MAST1, K317R, K545R, and the double KR mutant K317R/K545R (2KR) were generated.
# as §6
# [6] = tested on: cisplatin-resistant cancer cells; experiment: Cisplatin response and cell viability of cisplatin-resistant cancer cells with 17-AAG; type: cell-based, human
# Protocol: as §5, §6
# hsp90A = hsp90A (Homo sapiens, UniProt P07900)
# AKT or cRaf = experiment: Protein levels of other hsp90 client proteins upon 17-AAG treatment; type: cell-based, human; settings: same doses of 17-AAG as diminish MAST1
# Protocol: as §7, §1
# MEK1 [7] = experiment: MEK1 activity in cisplatin-resistant cells upon 17-AAG treatment; type: cell-based, human; settings: MAST1 WT
# Protocol: as §6
# hsp90B = hsp90B (Homo sapiens, UniProt P08238)
# Sequence of hsp90B (P08238 whole entry): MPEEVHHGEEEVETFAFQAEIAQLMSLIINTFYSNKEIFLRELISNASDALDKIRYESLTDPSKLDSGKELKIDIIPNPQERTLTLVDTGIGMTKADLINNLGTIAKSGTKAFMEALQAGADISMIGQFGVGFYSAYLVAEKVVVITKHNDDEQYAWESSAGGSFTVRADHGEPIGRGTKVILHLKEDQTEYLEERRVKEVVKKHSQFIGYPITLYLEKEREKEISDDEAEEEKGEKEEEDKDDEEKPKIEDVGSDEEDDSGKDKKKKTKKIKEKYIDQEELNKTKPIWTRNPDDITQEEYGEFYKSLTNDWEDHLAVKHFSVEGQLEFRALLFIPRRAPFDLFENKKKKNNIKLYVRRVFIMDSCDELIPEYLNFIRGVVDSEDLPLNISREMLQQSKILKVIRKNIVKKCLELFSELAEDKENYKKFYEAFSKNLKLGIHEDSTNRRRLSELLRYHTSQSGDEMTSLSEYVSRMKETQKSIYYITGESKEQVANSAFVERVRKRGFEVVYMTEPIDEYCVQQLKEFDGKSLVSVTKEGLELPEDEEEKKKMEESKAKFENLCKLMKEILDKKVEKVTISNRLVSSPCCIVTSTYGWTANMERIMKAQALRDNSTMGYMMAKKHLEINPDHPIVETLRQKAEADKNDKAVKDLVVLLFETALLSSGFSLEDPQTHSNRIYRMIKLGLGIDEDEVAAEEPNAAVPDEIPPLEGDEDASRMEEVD
# MAST1 promoter = MAST1 promoter reporter activity assay; type: cell-based, human; settings: pMAST1-luc reporter
# Protocol: (§8) The Transcription Factor Activation Profiling Array detects activities of 96 cellular TFs, including HIF1, p53, and NF-kB, which are essential in regulating cellular gene expression. Among the 96 TFs, 6 were activated more than 1.8-fold when cells were treated with cisplatin, including GR/[…] (PR), NFAT, ATF2, CAR, and CBF. To investigate whether any of these TFs activate the MAST1 promoter, these 6 TFs were knocked down in KB-3-1 cells and a MAST1 promoter reporter activity assay was performed in the presence of cisplatin. Knockdown of GR but not other TFs attenuated MAST1 promoter activity. In addition, modulation of GR affected MAST1 promoter activity in the presence of cisplatin in cancer cells. Target downregulation or overexpression of GR abolished or enhanced MAST1 promoter activity in a cisplatin dose-dependent manner in KB-3-1 cells. In line with the changes seen in MAST1 mRNA, MAST1 protein level correlated with GR level in cancer cells (FIG. 3D).
# GR binds to the glucocorticoid response element (GRE) on DNA within the promoter region and regulates genes. A GRE was identified within the MAST1 promoter sequence at −44 to −58. […]
# GR = GR intracellular location by immunofluorescence staining; type: cell-based, human; settings: KB-3-1 cancer cell line
# Text: To explore the molecular mechanism by which the transcription factor activity of GR is enhanced by cisplatin treatment, the intracellular location of GR in cisplatin-treated cells was investigated. GR resides predominantly in the cytoplasm as part of a heterooligomeric complex of HSP 40, 70, and 90 and other proteins. Binding to its agonist ligand changes the conformation of GR, which dissociates from the HSPs and possibly other protein factors, and translocates into the nucleus. The nuclear translocated GR is considered to be activated GR. Thus, experiment were performed to determine whether cisplatin treatment changes the cellular location of GR from the cytosol to the nucleus in cancer cells. […] This observation was confirmed in vivo in xenograft mice. […] Furthermore, the translocation of GR was found in paired primary HNSCC patient tumors. GR was located mainly in the cytosol in tumors collected from patients before cisplatin or carboplatin therapy, whereas the GR was predominantly stained in the nucleus in tumors collected from patients after the therapy. These experiments indicate that cisplatin treatment activates GR by translocating it to the nucleus in cancer cells.
# MAST1 [8] = experiment: MAST1 induction by cisplatin in cancer cell lines; type: cell-based, human; settings: KB-3-1, A549, and A2780 cell lines
# Protocol: (§9) Experiments were performed to determine whether MAST1 is induced by cisplatin treatment. Cell line-based studies indicate that MAST1 is increased upon cisplatin treatment in three cancer cell lines, KB-3-1, A549, and A2780. To validate this observation in vivo, cisplatin-resistant tumors were established by treating KB-3-1 bearing mice with sub-effective doses of cisplatin. The MAST1 gene was induced in xenografted tumors after cisplatin administration in mice. […] Cisplatin-resistant refers to patients with tumor recurrence within two years of cisplatin or carboplatin-based chemotherapy.
# 96 cellular TFs = experiment: Transcription Factor Activation Profiling Array; type: cell-based, human; settings: cisplatin treated vs nontreated KB-3-1 cells
# Protocol: as §8
# [9] = tested on: KB-3-1 xenografted tumors; experiment: Xenograft mice bearing KB-3-1 tumors treated with cisplatin; type: in vivo
# Protocol: as §9
# To explore the molecular mechanism by which the transcription factor activity of GR is enhanced by cisplatin treatment, the intracellular location of GR in cisplatin-treated cells was investigated. GR resides predominantly in the cytoplasm as part of a heterooligomeric complex of HSP 40, 70, and 90 and other proteins. Binding to its agonist ligand changes the conformation of GR, which dissociates from the HSPs and possibly other protein factors, and translocates into the nucleus. The nuclear translocated GR is considered to be activated GR. Thus, experiment were performed to determine whether cisplatin treatment changes the cellular location of GR from the cytosol to the nucleus in cancer cells. […] This observation was confirmed in vivo in xenograft mice. […]
# [10] = cisplatin 3 μg/ml, dexamethasone 0.5 μM
# [11] = cisplatin 1 μg/ml, mifepristone 10 μM
smiles,measurement,setting,value
CC(C)C[C@@H](C=O)NC(=O)[C@H](CC(C)C)NC(=O)[C@H](CC(C)C)NC(=O)OCc1ccccc1 [MG-132] (Cbz-Leu-Leu-Leu-aldehyde),17-AAG-mediated MAST1 degradation,MAST1 [1]; 293T cells,prevented 17-AAG-mediated MAST1 degradation
same,MAST1 ubiquitination,MAST1 [1]; proteasome inhibitor treatment,led to MAST1 ubiquitination
"CC1CC2C3CCC4=CC(=O)C=CC4(C)C3(F)C(O)CC2(C)C1(O)C(=O)CO (centres unmarked) [dexamethasone, 9-fluoro-11,17-dihydroxy-17-(2-hydroxyacetyl)-10,13,16-trimethyl-6,7,8,9,10,11,12,13,14,15,16,17-dodecahydro-3H-cyclopenta [a]phenanthren-3-one]",cisplatin response (cell viability),KB-3-1 cells; [10],conferred cisplatin resistance to cancer cells
same,tumor growth (tumor volume),[2],abolished the cisplatin effect
same,"GR activity, MAST1 expression, cisplatin-resistant tumor growth","GR, MAST1","enhanced GR activity, MAST1 expression, and cisplatin-resistant tumor growth"
same,MEK1 activity,MEK1 [3]; [10],reactivation of MEK1
"CC#CC1(O)CCC2C3CCC4=CC(=O)CCC4=C3C(c3ccc(N(C)C)cc3)CC21C (centres unmarked) [mifepristone, 11-(4-(dimethylamino)phenyl)-17-hydroxy-13-methyl-17-(prop-1-yn-1-yl)-1,2,6,7,8,11,12,13,14,15, 16,17-dodecahydro-3H-cyclopenta[a]phenanthren-3-one]",cisplatin response (cell viability),KB-3-1 cells; [11],sensitized cancer cells to cisplatin treatment
same,MEK1 activity (MEK1 phosphorylation at S217/S221),MEK1 [3]; [11],attenuated MEK1 activity
"C=CCNC1=C2CC(C)CC(OC)C(O)C(C)C=C(C)C(OC(N)=O)C(OC)C=CC=C(C)C(=O)NC(=CC1=O)C2=O (centres unmarked) [17-AAG, 19-(allylamino)-13-hydroxy-8,14-dimethoxy-4,10,12,16-tetramethyl-3,20,22-trioxo-2-azabicyclo[16.3.1]docosa-1(21),4,6,10,18-pentaen-9-yl carbamate]",MAST1 mRNA expression levels,MAST1 mRNA,remained unchanged
same,"tumor growth, MAST1 2KR xenograft tumors","[4]; KB-3-1cisR MAST1 2KR, cisplatin (5 mg/kg) and 17-AAG (50 mg/kg)",resistant to these effects of 17-AAG treatment
same,"tumor growth, MAST1 WT xenograft tumors","[4]; KB-3-1cisR MAST1 WT, cisplatin (5 mg/kg) and 17-AAG (50 mg/kg)",attenuated tumor growth upon cisplatin exposure
same,MAST1 protein level in xenograft tumors,"[4]; xenograft mice, with cisplatin",decreased
same,xenograft tumor response to cisplatin,"[4]; xenograft mice, with cisplatin",sensitized xenograft tumors to cisplatin
same,2KR MAST1 protein,MAST1 [5]; MAST1 K317R/K545R (2KR),remained intact
same,wild-type (WT) MAST1 protein,MAST1 [5]; MAST1 WT,degraded upon 17-AAG treatment in a dose-dependent manner
same,MAST1 protein levels,MAST1 [5]; cancer cells,diminished MAST1 protein levels in a dose-dependent manner; also recorded: decreased the level of MAST1
same,"cell viability and cisplatin resistance, cells expressing MAST1 2KR","[6]; MAST1 2KR, in the presence of cisplatin",no significant decrease in cell viability and cisplatin resistance
same,"cell viability and cisplatin resistance, cells expressing MAST1 WT","[6]; MAST1 WT, in the presence of cisplatin",sensitive to 17-AAG treatment
same,cisplatin resistance of cisplatin-resistant cancer cells,[6]; with cisplatin,significantly sensitized cisplatin-resistant cancer cells to cisplatin
same,binding to hsp90A (SPR),hsp90A,binds to both hsp90A and hsp90B
same,protein levels of hsp90 client proteins AKT or cRaf,AKT or cRaf,insufficient to decrease
same,activity of the downstream substrate MEK1,MEK1 [7],attenuated activity of the downstream substrate MEK1
same,binding to hsp90B (SPR),hsp90B,binds to both hsp90A and hsp90B
N.N.[Cl][Pt][Cl] [cisplatin],WT MAST1 promoter activity,MAST1 promoter,induced WT MAST1 promoter activity
same,GR cellular location,GR,translocated from the cytosol to the nucleus
same,MAST1 level upon cisplatin treatment,MAST1 [8],increased
same,"transcription factor activation (6 of 96 TFs incl. GR/PR, NFAT, ATF2, CAR, CBF)",96 cellular TFs,more than 1.8 fold
same,GR location in xenograft tumors,[9]; administration of cisplatin,nuclear translocation of GR
same,MAST1 gene in xenografted tumors,[9]; after cisplatin administration in mice,induced
